Measurements from patent publication US4100346A, “Certain 7(o-amino-methyl- or methylaminomethylphenyl- or cyclohexadienyl- or thienylacetamide)-3[1-carboxymethyl-(or ethyl- or propyl-)-tetrazol-5-ylthiomethyl]-3-cephem-4-carboxylic acids” (Bristol-Myers Company, priority 1976, dated 1978).
Values after ≈ are worked out from the molar mass of the structure shown. Like-named read-outs stand apart in the source and are kept apart here.

Experiments:
[1] = tested on: Citrobacter sp.; experiment: Intramuscular treatment of systemically infected mice; type: in vivo; settings: im, Citrobacter sp. strain 1, challenge 5×10^6 -2×10^7, treated 1 and 3.5 hours after infection, read-out: PD50 /treatment
[2] = tested on: Proteus rettgeri; experiment: as above; type: in vivo; settings: Providencia rettgeri, im, Proteus rettgeri strain 4, challenge 2×10^6 -3×10^6, treated 1 and 3.5 hours after infection, read-out: PD50 /treatment
[3] = tested on: Proteus mirabilis; experiment: as above; type: in vivo; settings: im, 3.5 h, read-out: PD50 /treatment
[4] = tested on: Pseudomonas aeruginosa; experiment: Growth inhibitory activity, antibiotic dilution technique; settings: read-out: Minimum inhibitory concentration
[5] = tested on: Enterobacter aerogenes; experiment: Effect of inoculum size on susceptibility of Enterobacteriaceae; settings: Klebsiella aerogenes, read-out: Minimum Inhibitory Concentration, Enterobacter aerogenes strain 1
[6] = tested on: Proteus rettgeri; experiment: Growth inhibitory activity, antibiotic dilution technique; settings: Providencia rettgeri, read-out: percent of strains inhibited
[7] = tested on: Bordetella bronchiseptica; experiment: as above; settings: read-out: Minimum inhibitory concentration
[8] = target: staphylococcal β-lactamase, Staphylococcus aureus A9606 (Staphylococcus aureus, UniProt P00807); experiment: Hydrolysis by β-lactamase in cell-free extracts; type: biochemical; settings: cell-free extract
staphylococcal β-lactamase, Staphylococcus aureus A9606, sequence (P00807 25-281): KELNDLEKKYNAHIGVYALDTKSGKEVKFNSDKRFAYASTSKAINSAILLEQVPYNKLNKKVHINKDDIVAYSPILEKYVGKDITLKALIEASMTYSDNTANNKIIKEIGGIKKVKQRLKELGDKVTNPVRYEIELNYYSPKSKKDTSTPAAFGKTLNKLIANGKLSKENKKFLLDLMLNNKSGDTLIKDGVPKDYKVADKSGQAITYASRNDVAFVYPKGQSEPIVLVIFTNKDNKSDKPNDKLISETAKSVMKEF
Description: Miscellaneous. Methods for determining bactericidal activity and susceptibility to cell-free β-lactamase were those previously used; Leitner et al., BL-S640, A Cephalosporin With a Broad Spectrum of Antibacterial Activity: Properties in vitro, Antimicrob. Agents Chemother. 7:298-305 (1975).
Susceptibility to β-lactamase. Susceptibility to enzymic hydrolysis was assessed by determining relative rates of hydrolysis by cell-free preparations of various β-lactamases (Table 6). BL-S786 was slightly to markedly less susceptible than the other cephalosporins to hydrolysis by β-lactamases of Type Ia, Ib, IIIa and IVa. All cephalosporins were poor substrates for Type IIa and staphylococcal β-lactamases. The four cephalosporins were hydrolyzed at similar rates by the Type IVb enzyme.

[9] = tested on: Edwardsiella tarda; experiment: Growth inhibitory activity, antibiotic dilution technique; settings: read-out: Minimum inhibitory concentration
[10] = tested on: Enterobacter cloacae; experiment: Intramuscular treatment of systemically infected mice; type: in vivo; settings: mice, intramuscular; compared with control cephalosporins
Excerpt: Treatment of Systemically Infected Mice. The procedures were identical with those published previously [Leitner et al., BL-S640, a Cephalosporin With a Broad Spectrum of Antibacterial Activity: Bioavailability and Therapeutic Properties in Rodents, Antimicrob. Agents Chemother.
(a) the hog gastric mucin used in infections with Staphylococcus aureus No. 2 was purchased from American Laboratories, Inc., Omaha, Neb.

[11] = target: T1, β-lactamase Class III Type a, Escherichia coli TEM (Escherichia coli, UniProt P62593); type: biochemical
T1 construct: cell-free preparations of various β-lactamases; endogenous in cells; host or cells: Escherichia coli strain TEM
T1 sequence (P62593 24-286 limits assumed): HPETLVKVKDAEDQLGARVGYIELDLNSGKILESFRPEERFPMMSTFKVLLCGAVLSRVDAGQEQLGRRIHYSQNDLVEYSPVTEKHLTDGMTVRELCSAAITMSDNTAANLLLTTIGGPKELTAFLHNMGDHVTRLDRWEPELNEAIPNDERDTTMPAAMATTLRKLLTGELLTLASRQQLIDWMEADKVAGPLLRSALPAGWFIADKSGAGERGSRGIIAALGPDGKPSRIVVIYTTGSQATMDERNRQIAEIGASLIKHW
Description: (§1) Miscellaneous. Methods for determining bactericidal activity and susceptibility to cell-free β-lactamase were those previously used; Leitner et al., BL-S640, A Cephalosporin With a Broad Spectrum of Antibacterial Activity: Properties in vitro, Antimicrob. Agents Chemother.
(§2) Susceptibility to β-lactamase. Susceptibility to enzymic hydrolysis was assessed by determining relative rates of hydrolysis by cell-free preparations of various β-lactamases (Table 6).

[12] = tested on: β-lactamase Class II Type a, Proteus mirabilis 1266; type: biochemical
Description: as §1, §2

[13] = target: β-lactamase Class I Type b, Escherichia coli 719 (Escherichia coli, UniProt P00811); type: biochemical
β-lactamase Class I Type b, Escherichia coli 719, sequence (P00811 20-377): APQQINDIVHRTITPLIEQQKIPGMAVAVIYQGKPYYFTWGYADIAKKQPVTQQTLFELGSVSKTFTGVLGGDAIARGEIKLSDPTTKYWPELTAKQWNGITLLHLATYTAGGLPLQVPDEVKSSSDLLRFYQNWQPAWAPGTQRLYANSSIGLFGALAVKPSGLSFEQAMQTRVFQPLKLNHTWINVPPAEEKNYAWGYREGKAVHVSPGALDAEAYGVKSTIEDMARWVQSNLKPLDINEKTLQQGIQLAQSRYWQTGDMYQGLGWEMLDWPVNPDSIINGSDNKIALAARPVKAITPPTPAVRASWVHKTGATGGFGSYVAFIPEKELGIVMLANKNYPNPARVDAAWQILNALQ
Description: as §1, §2

[14] = target: β-lactamase Class I Type a, Enterobacter cloacae 214 (Enterobacter cloacae, UniProt P05364); type: biochemical
β-lactamase Class I Type a, Enterobacter cloacae 214, sequence (P05364 21-381): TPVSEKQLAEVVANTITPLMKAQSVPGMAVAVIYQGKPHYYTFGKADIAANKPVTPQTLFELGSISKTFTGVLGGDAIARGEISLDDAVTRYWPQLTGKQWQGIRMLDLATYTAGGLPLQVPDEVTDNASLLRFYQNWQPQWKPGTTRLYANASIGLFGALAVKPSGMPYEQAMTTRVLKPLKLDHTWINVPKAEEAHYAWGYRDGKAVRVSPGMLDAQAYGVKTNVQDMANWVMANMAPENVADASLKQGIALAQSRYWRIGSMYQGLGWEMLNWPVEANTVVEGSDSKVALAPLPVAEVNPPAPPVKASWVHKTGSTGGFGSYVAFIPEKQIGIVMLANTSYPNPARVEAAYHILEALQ
Description: as §1, §2

[15] = tested on: β-lactamase Class IV Type b, Klebsiella pneumoniae 1169; type: biochemical
Description: as §1, §2

[16] = tested on: β-lactamase Class IV Type a, Klebsiella pneumoniae 53; type: biochemical
Description: as §1, §2

[17] = tested on: Citrobacter sp.; experiment: Growth inhibitory activity, antibiotic dilution technique
[18] = tested on: Proteus mirabilis; experiment: Effect of inoculum size on susceptibility of Enterobacteriaceae
[19] = tested on: Proteus vulgaris; experiment: as above
[20] = tested on: Clostridium sp.; experiment: microbe, parasite or virus in culture; type: cell-based
Description: Antibiotic spectrum. […] Procedures were as follows:
c. Obligate anaerobes. The assay was performed on solid medium, consisting of Brain Heart Infusion Broth (BBL) supplemented with 5% defibrinated sheep blood and 1% Ionagar (Colab).

[21] = read-out: Minimum inhibitory concentration

NCc1ccccc1CC(=O)N[C@@H]1C(=O)N2C(C(=O)O)=C(CSc3nnnn3CC(=O)O)CS[C@H]12 [Example 1]
ED50 [1]: 3.5 mg/kg | ED50 [2]: 2.4 mg/kg | ED50 ([3]; Proteus mirabilis strain 1, challenge 7×10^6 -9×10^6, treated 1 and 3.5 hours after infection): 1.4 mg/kg | ED50 ([3]; Proteus mirabilis strain 5, challenge 9×10^5 -3×10^6, treated 1 and 3.5 hours after infection): 0.62 mg/kg | ED50 ([3]; Proteus mirabilis strain 8, challenge 6×10^5 -4×10^6, treated 1 and 3.5 hours after infection): 0.59 mg/kg | MIC [4]: > 125 µg/mL | MIC ([5]; A, Inoculum of 10^2 organisms): 1 µg/mL (≈ 1.92 µM) | MIC ([5]; B, Inoculum of 10^6 organisms): > 250 µg/mL | inhibition at 16 µg/mL [6]: 78% | MIC [7]: 125 µg/mL (≈ 241 µM) | Relative Rate of Hydrolysis (benzylpenicillin = 100) [8]: < 0.5 | MIC [9]: 0.13 µg/mL (≈ 0.25 µM) | efficacy against infections with Enterobacter cloacae [10]: alone was effective | Relative Rate of Hydrolysis (benzylpenicillin = 100) [11]: 2 | Relative Rate of Hydrolysis (benzylpenicillin = 100) [12]: < 1 | Relative Rate of Hydrolysis (benzylpenicillin = 100) [13]: 190 | Relative Rate of Hydrolysis (benzylpenicillin = 100) [14]: 1100 | Relative Rate of Hydrolysis (benzylpenicillin = 100) [15]: 30 | Relative Rate of Hydrolysis (benzylpenicillin = 100) [16]: 6 | MIC [17, 21]: 1 µg/mL (≈ 1.92 µM) | MIC ([17]; read-out: Minimum inhibitory concentration, Citrobacter sp., 1 strain): 125 µg/mL (≈ 241 µM) | MIC ([18]; read-out: Minimum Inhibitory Concentration, Proteus mirabilis strain 1, A, Inoculum of 10^2 organisms): 0.5 µg/mL (≈ 0.962 µM) | MIC ([18]; read-out: Minimum Inhibitory Concentration, Proteus mirabilis strain 1, B, Inoculum of 10^6 organisms): 2 µg/mL (≈ 3.85 µM) | MIC ([18]; read-out: Minimum Inhibitory Concentration, Proteus mirabilis strain 2, A, Inoculum of 10^2 organisms): 0.5 µg/mL (≈ 0.962 µM) | MIC ([18]; read-out: Minimum Inhibitory Concentration, Proteus mirabilis strain 2, B, Inoculum of 10^6 organisms): 4 µg/mL (≈ 7.7 µM) | MIC ([18]; read-out: Minimum Inhibitory Concentration, Proteus mirabilis strain 3, A, Inoculum of 10^2 organisms): 0.5 µg/mL (≈ 0.962 µM) | MIC ([18]; read-out: Minimum Inhibitory Concentration, Proteus mirabilis strain 3, B, Inoculum of 10^6 organisms): 2 µg/mL (≈ 3.85 µM) | MIC ([18]; read-out: Minimum Inhibitory Concentration, Proteus mirabilis strain 4, A, Inoculum of 10^2 organisms): 0.5 µg/mL (≈ 0.962 µM) | MIC ([18]; read-out: Minimum Inhibitory Concentration, Proteus mirabilis strain 4, B, Inoculum of 10^6 organisms): 2 µg/mL (≈ 3.85 µM) | MIC ([18]; read-out: Minimum Inhibitory Concentration, Proteus mirabilis strain 5, A, Inoculum of 10^2 organisms): 0.5 µg/mL (≈ 0.962 µM) | MIC ([18]; read-out: Minimum Inhibitory Concentration, Proteus mirabilis strain 5, B, Inoculum of 10^6 organisms): 4 µg/mL (≈ 7.7 µM) | MIC ([19]; read-out: Minimum Inhibitory Concentration, Proteus vulgaris strain 1, A, Inoculum of 10^2 organisms): 1 µg/mL (≈ 1.92 µM) | MIC ([19]; read-out: Minimum Inhibitory Concentration, Proteus vulgaris strain 1, B, Inoculum of 10^6 organisms): 4 µg/mL (≈ 7.7 µM) | MIC ([19]; read-out: Minimum Inhibitory Concentration, Proteus vulgaris strain 2, A, Inoculum of 10^2 organisms): 1 µg/mL (≈ 1.92 µM) | MIC ([19]; read-out: Minimum Inhibitory Concentration, Proteus vulgaris strain 2, B, Inoculum of 10^6 organisms): 8 µg/mL (≈ 15.4 µM) | MIC ([19]; read-out: Minimum Inhibitory Concentration, Proteus vulgaris strain 4, A, Inoculum of 10^2 organisms): 1 µg/mL (≈ 1.92 µM) | MIC ([19]; read-out: Minimum Inhibitory Concentration, Proteus vulgaris strain 4, B, Inoculum of 10^6 organisms): 8 µg/mL (≈ 15.4 µM) | MIC ([20]; 48 h, read-out: concentration inhibiting all strains): 2 µg/mL (≈ 3.85 µM) | MIC [20, 21]: 2 µg/mL (≈ 3.85 µM)
